Laboratory results published in patent US20240410876A1, “EXTRACELLULAR VESICLE DRUG ANALYSIS FOR REAL-TIME MONITORING OF TARGETED THERAPY” (NATIONAL UNIVERSITY OF SINGAPORE, priority 2021, published 2024).
“And” between values parts separate entries of the source, which are not always exact repeats. Equal entries are not always repeated.

Assays:
H3255 cells = assay: Anti-proliferation activity (MTS assay); type: cell-based; details: Homo sapiens, NCI-H3255; H3255 lung cancer cells, 72 hours
Description: MTS assay. […] Cell viability was assessed using the [3-(4,5-dimethylthiazol-2-yl)-5-(3-carboxymethoxyphenyl)-2-(4-sulfophenyl)-2H-tetrazolium inner salt (MTS) cell proliferation assay (Promega).

EGFR [1] = assay: Multiplexed ExoSCOPE: drug occupancy in EVs secreted by drug-treated cells; type: cell-based, human; details: heterogeneous cell mixture, 1 μM, within 24 hours, CD63/EGFR/EpCAM/MUC1 vesicle subpopulations
Description: ExoSCOPE assay. We developed the ExoSCOPE assay for the direct analysis of both marker composition and drug occupancy in EVs. Samples were diluted 1:1 in PBS before ExoSCOPE analyses. We treated the diluted samples with click probe A3 (tagged with TCO, 100 nM) at 37° C. for 30 min before analysis. […] To measure EV marker composition (for a single marker analysis), we incubated the samples on antibody-functionalized ExoSCOPE sensors (1 μL, 10 min, room temperature), to achieve marker-specific EV capture. As a control experiment, sensors functionalized with IgG isotope control antibodies were used. Relative spectral changes (plasmonic signals) were measured to determine marker-specific EV binding. To measure EV drug occupancy, we used the click probes within sensor-bound vesicles to achieve enzymatic amplification. Specifically, we utilized the probes' click handles (TCO) to recruit tetrazine-conjugated horseradish peroxidase (HRP), which catalyzed in situ, enzymatic conversion of the soluble substrate (3,3′-diaminobenzidine, DAB) to form local, insoluble polymeric products on labeled vesicles; these insoluble deposits acted as optical products to amplify the plasmonic signals. […] Relative spectral changes were measured to determine probe labeling. […]

EGFR [2] = target: T1, EGFR (Homo sapiens, UniProt P00533, L858R); assay: Live-cell labeling of H3255 cells by click probes (in-gel fluorescence); type: cell-based
T1 construct: endogenous in cells; host or cells: H3255 human lung cancer cells
Description: In-gel fluorescence analysis of cell labeling. Cell pellets were resuspended in Pierce IP lysis buffer (Thermo Scientific) supplemented with protease inhibitor cocktail (Thermo Scientific). After lysis on ice, the lysate was centrifuged at 2000 g, 4° C. for 2 min, and the supernatant was collected and normalized to 1.5 mg/mL with PBS. 40 μL of each sample was first blocked with iodoacetamide (15 mM, Sigma) for 30 min at room temperature in the dark, followed by click reaction with either DBCO-TMR or tetrazine-TMR (25 μM, Click Chemistry Tools) at room temperature for 30 min. The sample was then boiled in LDS sample buffer at 95° C. for 5 min, and resolved by 4-12% SDS-PAGE gel. Finally, the fluorescently labeled proteins were visualized with a ChemiDoc imaging system and subsequently stained with Bio-Safe Coomassie (Bio-Rad).

T1 sequence (P00533 25-1210 L858R): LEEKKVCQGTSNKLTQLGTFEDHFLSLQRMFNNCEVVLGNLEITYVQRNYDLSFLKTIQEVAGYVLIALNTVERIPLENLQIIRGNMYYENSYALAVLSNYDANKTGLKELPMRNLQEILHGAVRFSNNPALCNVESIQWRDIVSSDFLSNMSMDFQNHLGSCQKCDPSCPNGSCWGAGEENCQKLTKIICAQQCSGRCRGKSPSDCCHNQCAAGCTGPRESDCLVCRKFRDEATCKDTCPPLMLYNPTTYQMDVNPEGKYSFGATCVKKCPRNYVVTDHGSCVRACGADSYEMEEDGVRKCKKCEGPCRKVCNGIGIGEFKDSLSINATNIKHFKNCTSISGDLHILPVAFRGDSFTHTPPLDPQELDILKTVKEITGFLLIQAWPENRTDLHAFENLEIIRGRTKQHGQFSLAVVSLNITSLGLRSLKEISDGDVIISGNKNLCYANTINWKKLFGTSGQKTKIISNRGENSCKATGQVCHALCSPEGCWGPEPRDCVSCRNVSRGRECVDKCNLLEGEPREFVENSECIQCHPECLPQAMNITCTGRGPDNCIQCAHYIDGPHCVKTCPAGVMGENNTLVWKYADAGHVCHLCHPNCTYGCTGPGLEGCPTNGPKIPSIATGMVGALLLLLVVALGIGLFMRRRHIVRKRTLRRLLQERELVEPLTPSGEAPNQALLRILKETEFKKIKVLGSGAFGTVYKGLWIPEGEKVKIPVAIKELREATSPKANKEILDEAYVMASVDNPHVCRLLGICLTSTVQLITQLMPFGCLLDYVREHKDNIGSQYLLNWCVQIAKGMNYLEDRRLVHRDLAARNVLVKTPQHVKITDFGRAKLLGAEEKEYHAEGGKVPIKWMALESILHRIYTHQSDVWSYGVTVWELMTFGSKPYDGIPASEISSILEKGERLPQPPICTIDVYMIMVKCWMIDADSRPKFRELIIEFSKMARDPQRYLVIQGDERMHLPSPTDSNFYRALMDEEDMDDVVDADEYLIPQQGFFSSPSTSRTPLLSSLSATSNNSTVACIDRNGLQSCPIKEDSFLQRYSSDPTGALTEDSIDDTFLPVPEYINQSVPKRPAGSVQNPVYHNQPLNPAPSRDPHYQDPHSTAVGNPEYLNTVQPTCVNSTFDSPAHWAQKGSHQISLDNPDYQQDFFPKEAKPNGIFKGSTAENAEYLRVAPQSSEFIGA

Row | Compound | GI50 (H3255 cells) [nM] | time-dependent change of ξEV (EGFR [1]) | signal-to-noise ratio of EGFR labeling among the click probes (EGFR [2]; 100 nM probe, with or without afatinib 1 μM) | incubation time to maximal labeling (EGFR [2]; probe 100 nM, H3255 cells) [h] | live-cell EGFR labeling efficiency (EGFR [2]; probe 100 nM, H3255 cells, 15 min incubation)
1 | CN(C)C/C=C/C(=O)Nc1cc2c(Nc3ccc(F)c(Cl)c3)ncnc2cc1O[C@H]1CCOC1 [afatinib, reference compound] | 0.6 | – | – | – | –
2 | C#Cc1cccc(Nc2ncnc3cc(OCCOC)c(OCCOC)cc23)c1 [erlotinib] | – | increased | – | – | –
3 | CN(C)C/C=C/C(=O)Nc1cc2c(Nc3ccc(F)c(Cl)c3)ncnc2cc1OCCCNC(=O)CNC(=O)OC1CC/C=C/CCC1 (stereo not drawn) [probe A3, (E)-cyclooct-4-en-1-yl (2-((3-((4-((3-chloro-4-fluorophenyl)amino)-6-((E)-4-(dimethylamino)but-2-enamido)quinazolin-7-yl)oxy)propyl)amino)-2-oxoethyl)carbamate] | 1.8 | – | best signal-to-noise ratio | 1 | > 90% and 90%
